For the test, the target named is T1, GST-RIPK1 (recombinant GST-RIPK1 kinase domain (residues 1-327)) (Homo sapiens, UniProt Q13546).
T1 construct: recombinant GST-RIPK1 kinase domain (residues 1-327) enzyme produced from baculovirus-transfected Sf21 cells; host or cells: baculovirus-transfected Sf21 insect cells
T1 sequence (Q13546 1-327): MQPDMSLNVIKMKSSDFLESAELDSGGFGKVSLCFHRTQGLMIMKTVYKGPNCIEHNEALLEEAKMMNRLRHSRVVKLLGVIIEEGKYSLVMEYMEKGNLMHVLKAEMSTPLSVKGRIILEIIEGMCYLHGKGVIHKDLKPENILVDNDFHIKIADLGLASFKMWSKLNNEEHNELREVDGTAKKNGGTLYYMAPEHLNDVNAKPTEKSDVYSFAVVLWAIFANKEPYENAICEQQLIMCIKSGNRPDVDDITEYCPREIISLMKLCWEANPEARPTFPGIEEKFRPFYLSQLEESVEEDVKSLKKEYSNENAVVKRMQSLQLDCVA
As to the kind of experiment: RIPK1-ADP-Glo Enzymatic Assay. Conditions: ten-point titration, top compound concentration of 100000 nM; 25 nM GST-RIPK1, 300 μM ATP, 3 μM dephosphorylated-MBP; 30 min pre-incubation, 150 min reaction. The class given is biochemical. Put shortly: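 ADP-Glo luminescence quantifies ADP formed over 150 minutes by 25 nM Sf21-produced GST-RIPK1 (1-327) using 300 μM ATP and 3 μM dephosphorylated MBP, following 30-minute compound preincubation at 1% DMSO. Ten-point 1:3 series from 100000 nM gave EC50 via four-parameter sigmoidal regression.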
Background: ADP-Glo first removes unused ATP, then detects ADP through luciferase.

In patent publication US20250154173A1 (Merck Sharp & Dohme LLC, priority 2023, published 2025) one finds EC50 data, which are given here for 26 compounds.

As a reminder, the EC50 is the concentration at which the effect is half-maximal. In the case of `O=C1N2C(CC[C@H]2c2cnccn2)OC12CC(OCc1cccc3cncc(F)c13)C2` (stereo partly drawn) [Example 18.21, (5′S)-3-[(4-fluoroisoquinolin-5-yl)methoxy]-5′-(pyrazin-2-yl)tetrahydro-3′H-spiro[cyclobutane-1,2′-pyrrolo[2,1-b][1,3]oxazol]-3′-one], the concentration giving a half-maximal response (EC50) is 32 nM. To `O=C1N2C(CC[C@H]2c2cnccn2)OC12CC(OCc1ccc3nc(C4CC4)cn3c1)C2` (stereo partly drawn) [Example 18.22, (5′S)-3-[(2-cyclopropylimidazo[1,2-a]pyridin-6-yl)methoxy]-5′-(pyrazin-2-yl)tetrahydro-3′H-spiro[cyclobutane-1,2′-pyrrolo[2,1-b][1,3]oxazol]-3′-one] belongs 74 nM; to `O=C1N2[C@@H](CC[C@H]2c2cnccn2)O[C@]12C[C@@H](OCc1ccc3scnc3c1)C2` [Example 18.23, (1s,3S,5′S,7a′R)-3-[(1,3-benzothiazol-5-yl)methoxy]-5′-(pyrazin-2-yl)tetrahydro-3′H-spiro[cyclobutane-1,2′-pyrrolo [2,1-b][1,3]oxazol]-3′-one], 27 nM; to `O=C1N2C(CC[C@H]2c2cnccn2)OC12CC(OCc1cnc(N3CCOCC3)nc1)C2` (stereo partly drawn) [Example 18.24, (5′S)-3-{[2-(morpholin-4-yl)pyrimidin-5-yl]methoxy}-5′-(pyrazin-2-yl)tetrahydro-3′H-spiro[cyclobutane-1,2′-pyrrolo[2,1-b][1,3]oxazol]-3′-one], 310 nM. To `O=C1N2C(CC[C@H]2c2cnccn2)OC12CC(OCc1ccc(Cn3ccnc3)cc1)C2` (stereo partly drawn) [Example 18.25, (5′S)-3-({4-[(1H-imidazol-1-yl)methyl]phenyl}methoxy)-5′-(pyrazin-2-yl)tetrahydro-3′H-spiro[cyclobutane-1,2′-pyrrolo[2,1-b][1,3]oxazol]-3′-one] belongs 48 nM; to `O=C1N2C(CC[C@H]2c2cnccn2)OC12CC(OCc1cccc(Cn3ccnn3)c1)C2` (stereo partly drawn) [Example 18.26, (5′S)-5′-(pyrazin-2-yl)-3-({3-[(1H-1,2,3-triazol-1-yl)methyl]phenyl}methoxy) tetrahydro-3′H-spiro[cyclobutane-1,2′-pyrrolo[2,1-b][1,3]oxazol]-3′-one], 34 nM; to `O=C1N2C(CC[C@H]2c2cnccn2)OC12CC(OCc1cncc(OCCF)c1)C2` (stereo partly drawn) [Example 18.27, (5′S)-3-{[5-(2-fluoroethoxy)pyridin-3-yl]methoxy}-5′-(pyrazin-2-yl)tetrahydro-3′H-spiro[cyclobutane-1,2′-pyrrolo[2,1-b][1,3]oxazol]-3′-one], 126 nM.

In the case of `N#CC1(c2ccc(COC3CC4(C3)OC3CC[C@@H](c5cnccn5)N3C4=O)cn2)CCC1` (stereo partly drawn) [Example 18.28, 1-[5-({[(5′S)-3′-oxo-5′-(pyrazin-2-yl)tetrahydro-3′H-spiro[cyclobutane-1,2′-pyrrolo[2,1-b][1,3]oxazol]-3-yl]oxy}methyl)pyridin-2-yl]cyclobutane-1-carbonitrile], the EC50 was 174 nM. To `N#CC1(c2ccc(COC3CC4(C3)OC3CC[C@@H](c5cnccn5)N3C4=O)c(Cl)c2)CC1` (stereo partly drawn) [Example 18.29, 1-[3-chloro-4-({[(5′S)-3′-oxo-5′-(pyrazin-2-yl)tetrahydro-3′H-spiro[cyclobutane-1,2′-pyrrolo[2,1-b][1,3]oxazol]-3-yl]oxy}methyl)phenyl]cyclopropane-1-carbonitrile] belongs 12 nM; to `O=C1N2C(CC[C@H]2c2cnccn2)OC12CC(OCc1ccc(-c3ccon3)cc1)C2` (stereo partly drawn) [Example 18.30, (5′S)-3-{[4-(1,2-oxazol-3-yl)phenyl]methoxy}-5′-(pyrazin-2-yl)tetrahydro-3′H-spiro[cyclobutane-1,2′-pyrrolo[2,1-b][1,3]oxazol]-3′-one], 45 nM; to `O=C1N2C(CC[C@H]2c2cnccn2)OC12CC(OCc1ccnc3ccnn13)C2` (stereo partly drawn) [Example 18.31, (5′S)-5′-(pyrazin-2-yl)-3-[(pyrazolo[1,5-a]pyrimidin-7-yl)methoxy]tetrahydro-3′H-spiro[cyclobutane-1,2′-pyrrolo[2,1-b][1,3]oxazol]-3′-one], 428 nM.

As to `COc1ccc2cc(COC3CC4(C3)OC3CC[C@@H](c5cnccn5)N3C4=O)ncc2n1` (stereo partly drawn) [Example 18.32, (5′S)-3-[(2-methoxy-1,7-naphthyridin-6-yl)methoxy]-5′-(pyrazin-2-yl)tetrahydro-3′H-spiro[cyclobutane-1,2′-pyrrolo[2,1-b][1,3]oxazol]-3′-one], the EC50 was 143 nM. The figure for `O=C1N2C(CC[C@H]2c2cnccn2)OC12CC(OCc1cc(Cl)ccc1-c1cnco1)C2` (stereo partly drawn) [Example 18.33, (5′S)-3-{[5-chloro-2-(1,3-oxazol-5-yl)phenyl]methoxy}-5′-(pyrazin-2-yl)tetrahydro-3′H-spiro[cyclobutane-1,2′-pyrrolo[2,1-b][1,3]oxazol]-3′-one] is 43 nM; for `COc1cc(COC2CC3(C2)OC2CC[C@@H](c4cnccn4)N2C3=O)cc2nccn12` (stereo partly drawn) [Example 18.34, (5′S)-3-[(5-methoxyimidazo[1,2-a]pyridin-7-yl)methoxy]-5′-(pyrazin-2-yl)tetrahydro-3′H-spiro[cyclobutane-1,2′-pyrrolo[2,1-b][1,3]oxazol]-3′-one] it is 231 nM. The figure for `O=C1N2C(CC[C@H]2c2cnccn2)OC12CC(OCc1ccc(N3CCOCC3)nc1)C2` (stereo partly drawn) [Example 18.35, (5′S)-3-{[6-(morpholin-4-yl)pyridin-3-yl]methoxy}-5′-(pyrazin-2-yl)tetrahydro-3′H-spiro[cyclobutane-1,2′-pyrrolo[2,1-b][1,3]oxazol]-3′-one] is 14 nM; for `O=C1N2C(CC[C@H]2c2cnccn2)OC12CC(OCc1cccc3nccn13)C2` (stereo partly drawn) [Example 18.36, (5′S)-3-[(imidazo[1,2-a]pyridin-5-yl)methoxy]-5′-(pyrazin-2-yl)tetrahydro-3′H-spiro[cyclobutane-1,2′-pyrrolo[2,1-b][1,3]oxazol]-3′-one] it is 28 nM; for `O=C1N2C(CC[C@H]2c2cnccn2)OC12CC(OCc1ccc3cnccc3c1)C2` (stereo partly drawn) [Example 18.37, (5′S)-3-[(isoquinolin-6-yl)methoxy]-5′-(pyrazin-2-yl)tetrahydro-3′H-spiro[cyclobutane-1,2′-pyrrolo[2,1-b][1,3]oxazol]-3′-one] it is 15 nM. For the compound `COc1ccc(COC2CC3(C2)OC2CC[C@@H](c4cnccn4)N2C3=O)cc1CC#N` (stereo partly drawn) [Example 18.38, [2-methoxy-5-({[(5′S)-3′-oxo-5′-(pyrazin-2-yl)tetrahydro-3′H-spiro[cyclobutane-1,2′-pyrrolo[2,1-b][1,3]oxazol]-3-yl]oxy}methyl)phenyl]acetonitrile], the EC50 is 12 nM. To `O=C1N2C(CC[C@H]2c2cnccn2)OC12CC(OCc1cc(-n3ccnc3)ccn1)C2` (some centres unmarked) [Example 18.39] belongs 301 nM. The figure for `N#Cc1ccc(OC2CCC2)cc1COC1CC2(C1)OC1CC[C@@H](c3cnccn3)N1C2=O` (stereo partly drawn) [Example 18.40, 4-(cyclobutyloxy)-2-({[(5′S)-3′-oxo-5′-(pyrazin-2-yl)tetrahydro-3′H-spiro[cyclobutane-1,2′-pyrrolo[2,1-b][1,3]oxazol]-3-yl]oxy}methyl)benzonitrile] is 119 nM.

With `COc1ccc2cc(COC3CC4(C3)OC3CC[C@@H](c5cnccn5)N3C4=O)cc(C)c2n1` (stereo partly drawn) [Example 18.41, (5′S)-3-[(2-methoxy-8-methylquinolin-6-yl)methoxy]-5′-(pyrazin-2-yl)tetrahydro-3′H-spiro[cyclobutane-1,2′-pyrrolo[2,1-b][1,3]oxazol]-3′-one], the EC50 was found to be 53 nM. The figure for `O=C1N2C(CC[C@H]2c2cnccn2)OC12CC(OCc1cnc3c(c1)CCCC3)C2` (stereo partly drawn) [Example 18.42, (5′S)-5′-(pyrazin-2-yl)-3-[(5,6,7,8-tetrahydroquinolin-3-yl)methoxy]tetrahydro-3′H-spiro[cyclobutane-1,2′-pyrrolo[2,1-b][1,3]oxazol]-3′-one] is 110 nM. To `O=C1N2C(CC[C@H]2c2cnccn2)OC12CC(OCc1cc3ncccc3s1)C2` (stereo partly drawn) [Example 18.43, (5′S)-5′-(pyrazin-2-yl)-3-[(thieno[3,2-b]pyridin-2-yl)methoxy]tetrahydro-3′H-spiro[cyclobutane-1,2′-pyrrolo[2,1-b][1,3]oxazol]-3′-one] belongs 6 nM; to `O=C1N2C(CC[C@H]2c2cnccn2)OC12CC(OCc1ccc(OCCF)nn1)C2` (stereo partly drawn) [Example 18.44, (5′S)-3-{[6-(2-fluoroethoxy)pyridazin-3-yl]methoxy}-5′-(pyrazin-2-yl)tetrahydro-3′H-spiro[cyclobutane-1,2′-pyrrolo[2,1-b][1,3]oxazol]-3′-one], 241 nM; to `N#Cc1ccncc1COC1CC2(C1)OC1CC[C@@H](c3cnccn3)N1C2=O` (stereo partly drawn) [Example 18.45, 3-({[(5′S)-3′-oxo-5′-(pyrazin-2-yl)tetrahydro-3′H-spiro[cyclobutane-1,2′-pyrrolo[2,1-b][1,3]oxazol]-3-yl]oxy}methyl)pyridine-4-carbonitrile], 159 nM. To `O=C1N2C(CC[C@H]2c2cnccn2)OC12CC(OCc1cnc3nccn3c1)C2` (stereo partly drawn) [Example 18.46, (5′S)-3-[(imidazo[1,2-a]pyrimidin-6-yl)methoxy]-5′-(pyrazin-2-yl)tetrahydro-3′H-spiro[cyclobutane-1,2′-pyrrolo[2,1-b][1,3]oxazol]-3′-one] belongs 128 nM.
